Data from patent US11300570B2, “Therapeutic and diagnostic methods for cancer” (Genentech, Inc., priority 2016, dated 2022).

How the values were obtained:
[1] = test system: locally advanced or metastatic NSCLC; assay: OAK Phase III randomized trial, atezolizumab vs docetaxel, in 2L+ NSCLC, efficacy by tTMB; assay type: in vivo, human; conditions: for Median OS / Median PFS: 2L+ OAK
Description: Patients were eligible for enrollment in the POPLAR study if they had locally advanced or metastatic (e.g., stage IIIB, stage IV, or recurrent) NSCLC; disease progression during or following treatment with a prior platinum-containing regimen for locally advanced, unresectable/inoperable, or metastatic NSCLC, or disease recurrence within 6 months of treatment with a platinum-based adjuvant/neoadjuvant regimen; measurable disease, as defined by RECIST v1.1; and an ECOG performance status of 0 or 1. Participants were randomized to receive either atezolizumab at a dose of 1200 mg intravenously every three weeks or docetaxel 75 mg per meter square (mg/m^2) intravenously every three weeks. Treatment with atezolizumab could be continued as long as participants were experiencing clinical benefit, i.e., in the absence of unacceptable toxicity or symptomatic deterioration attributed to disease progression. Pre-treatment tumor samples from patients in the Phase III OAK trial (Clinical Trial ID No.: NCT02008227) were also evaluated for tTMB. Patients were eligible for enrollment in the OAK study if they had locally advanced or metastatic (e.g., stage IIIB, stage IV, or recurrent) NSCLC; disease progression during or following treatment with a prior platinum-containing regimen for locally advanced, unresectable/inoperable, or metastatic NSCLC, or disease recurrence within 6 months of treatment with a platinum-based adjuvant/neoadjuvant regimen; measurable disease, as defined by RECIST v1.1; and an ECOG performance status of 0 or 1. Participants were randomized to receive either atezolizumab at a dose of 1200 mg intravenously every three weeks or docetaxel 75 mg per square meter (mg/m^2) intravenously every three weeks. Treatment with atezolizumab could be continued as long as participants were experiencing clinical benefit, i.e., in the absence of unacceptable toxicity or symptomatic deterioration attributed to disease progression.
To identify somatic mutations, tumor samples (e.g., archival tumor samples) were processed as described in Frampton et al. Nat. Biotechnol. 31:1023-31, 2013. Sequencing libraries were constructed to sequence and analyze samples. In addition to standard mutation processing, a mutation load estimation algorithm was applied that, based on the number of somatic mutations and/or rearrangements detected in Table 1 or Table 2, respectively, extrapolates to the exome or the genome as a whole. For purposes of mutation load estimation, all coding short variant alterations, base substitutions, and indels detected in the genes listed in Table 1 and Table 2 were counted. Further, all coding alterations (base substitutions and indels), including synonymous alterations, with the exception of known oncogenic driver mutations, in the genes listed in Table 1 and Table 2 were counted. However, numerous classes of detected alterations were not counted: non-coding alterations; alterations with known (occurring as known somatic alterations in the COSMIC database (Forbes et al. (2014) Nucl. Acids Res. 43:D805-11) and likely (truncations in tumor suppressor genes) functional status; known germline alterations in the dbSNP database (Sherry et al. (2001) Nucleic Acids Res. 29(1):308-11); germline alterations occurring with two or more counts in the ExAC database (Exome Aggregation Consortium (ExAC), Cambridge, Mass.); alterations that are predicted to be germline in the specimen being assessed; and alterations that are predicted to be germline in a cohort of >60,000 clinical specimens. Finally, to calculate the mutation load per megabase, the total number of mutations counted was divided by the coding region target territory of the test, which was 1.110 megabases (Mb) for the current version of the test. The average median coverage value for all samples was 490.
The BEP was defined as patients with at least one tTMB measurement from a baseline tumor sample. […]

[2] = test system: metastatic urothelial carcinoma (mUC); assay: IMvigor210 study of atezolizumab in metastatic urothelial carcinoma, efficacy by tTMB; assay type: in vivo, human
Protocol: To evaluate this idea, the association between tTMB and response to atezolizumab was evaluated in several distinct cancer types. As described in Example 2, high tTMB was associated with response to atezolizumab in 1 L and 2 L+ NSCLC, including at tTMB cutoffs of ≥16 mut/Mb and ≥20 mut/Mb. […] Tissue TMB was associated with improved ORR in 1 L and 2 L mUC patients at the ≥16 mut/Mb and ≥20 mut/Mb cutoffs in the IMvigor210 study (FIG. 17).

[3] = BEP (evaluable for TMB) (n = 174 atezolizumab, 186 docetaxel)
[4] = tTMB score <9 mut/Mb (n = 91 atezolizumab, 87 docetaxel)
[5] = tTMB score <16 mut/Mb (n = 135 atezolizumab, 136 docetaxel)
[6] = tTMB score ≥9 mut/Mb (n = 83 atezolizumab, 99 docetaxel)
[7] = tTMB score ≥16 mut/Mb (n = 39 atezolizumab, 50 docetaxel)

## atezolizumab
[1]; [3]
  Median OS: 13.3 months
  Median PFS: 2.0 months
[1]; ITT (n = 425 per arm)
  Median OS: 13.8 months
  Median PFS: 2.0 months
[1]; [4]
  Median OS: 14.2 months
  Median PFS: 1.8 months
[1]; [5]
  Median OS: 12.7 months
  Median PFS: 1.7 months
[1]; [6]
  Median OS: 13.3 months
  Median PFS: 2.5 months
[1]; [7]
  Median OS: 18.7 months
  Median PFS: 5.5 months
[1]; OAK study
  association of tissue TMB with efficacy: associated with improved efficacy
[2]; 1L cisplatin-ineligible mUC, cohort 1 of IMvigor210
  association of increased tTMB with ORR, PFS and OS: associated with increased ORR (FIG. 15A), longer PFS (FIG. 15B), and longer OS (FIG. 15C)
[2]; 2L+ mUC, cohort 2 of IMvigor210
  association of increased tTMB with ORR, PFS and OS: associated with increased ORR (FIG. 16A), longer PFS (FIG. 16B), and longer OS (FIG. 16C)
[2]; IMvigor210 1L cisplatin-ineligible and 2L+ mUC, 6 patients both TMB-high (≥16 mut/Mb) and MSI-high
  ORR: 83%
